Measured values from PMC9822769, “The Strange Case: The Unsymmetric Cisplatin-Based Pt(IV) Prodrug [Pt(CH3COO)Cl2(NH3)2(OH)] Exhibits Higher Cytotoxic Activity with respect to Its Symmetric Congeners due to Carrier-Mediated Cellular Uptake” (Bioinorganic Chemistry and Applications, 2022).

Key:
[1] = Immobilized artificial membrane (IAM) chromatography, log KW; type: physicochemical; details: IAM column; log k′ extrapolated to fully aqueous mobile phase
Procedure: Retention times, tR, were measured on two columns: (i) a standard C18 column (Phenomenex Phenosphere-NEXT, 250 × 4.6 mm, 5 μm) and (ii) an IAM.PC.DD.2 column (Regis, 10 cm × […], 10 μm packing 300 Å pore size), prepared by covalently bonding cell-membrane-forming phospholipids to silica. On (i), a chromatogram was performed for each complex (0.25 mM) in a fixed eluent composition (30% methanol/70% aqueous 15 mM formic acid; flow rate 0.5 mL·min^−1) using a Waters HPLC-MS instrument (equipped with an Alliance 2695 separation module, a 2487 dual lambda absorbance detector, and a 3100 mass detector). The UV-vis detector was set at 210 nm. In (ii), the mobile phase consisted of 20 mM ammonium acetate buffer at pH 6.9 and acetonitrile flowing at 1 mL·min^−1. The samples were dissolved in the mobile phase in a concentration range of 50–100 μg·mL^−1. An HPLC Varian ProStar instrument equipped with a 410 autosampler, a PDA 335 LC detector, and Galaxie Chromatography Data System Version 1.9.302.952 was used.
The different tRs were used to calculate log k′, which is the logarithm of the retention factor k′ = (tR − t0)/t0, where t0 is the column dead time (i.e., the tR of KCl or citric acid used as the internal reference for (i) and (ii), respectively).
In the case of IAM, the log KW values were calculated by an extrapolation method. Log k′ values were determined at a minimum of three different percentages of acetonitrile (ϕ) in the mobile phases (from 10 to 50%, v/v), and the intercept values of the linear relationships between log k′ and ϕ values were assumed as log KW [65, 66].
Immobilized artificial membrane (IAM) chromatography is a complementary technique for evaluating the interaction of a drug with the cellular membrane. In this technique, the stationary silica phase is covalently bonded to phospholipids, giving a material that is more similar to the cell membrane than the simpler aliphatic chains of the RP-HPLC columns. The log KW values (i.e., log k′ values extrapolated at fully aqueous mobile phase) show the same trend for the three Pt(IV) complexes (log KW = −0.64, −1.06, −0.96, and −0.83 for cisplatin, 1, 2, and 3, respectively) (Table 1).

A2780 = assay: Resazurin reduction cell viability assay, A2780; type: cell-based, human; details: 72 h of treatment; mean ± sd
Procedure: (§1) The compounds under investigation were tested on a panel of commercial human cancer cell lines: ovarian endometrioid adenocarcinoma A2780 (ICLC HTL98008), its cisplatin-resistant variant A2780cisR (ECACC 93112517), colon carcinoma HCT 116 (ECACC 91091005), breast invasive ductal carcinoma MCF7 (ECACC 86012803), embryonal carcinoma NTERA-2 clone D1 (also known as NT2/D1, ICLC HTL97025), and lung adenocarcinoma A549 (ICLC HTL03001). Furthermore, a cell line derived from the pleural effusion of a patient with untreated malignant pleural mesothelioma (MPM) was added to the panel, namely, MM98 (sarcomatoid phenotype). Commercial cells were purchased from the European Collection of Authenticated Cell Cultures (ECACC, UK) or the Interlab Cell Line Collection (ICLC, Genoa, Italy), while the MM98 cell line was obtained from the Pathology Unit of the National Hospital of Alessandria (Italy).
(§2) The following media were used to grow the cells: RPMI 1640 (for A2780, A2780cisR, NT2/D1, and A549 cells), DMEM (for MCF7 cells), DMEM supplemented with nonessential amino acids (for MM98 cells), and McCoy's 5A (for HCT 116 cells). All media contained L-glutamine (2 mM) and were added with penicillin (100 IU·mL^−1), streptomycin (100 mg·L^−1), and 10% heat inactivated FBS. To maintain resistance in A2780cisR cells, cisplatin (1 μM) was added to the medium every two passages.
(§3) Continuous treatments (CT) were carried out at 37°C in a humidified chamber with 5% CO2. Cisplatin was dissolved in a 0.9% w/v NaCl aqueous solution and brought to pH = 3 with HCl (final stock concentration 1 mM). The Pt(IV) Complexes 1–3 were dissolved in milliQ water (final stock concentration 5 mM) and stored at −20°C. The stock concentration was confirmed with inductively coupled plasma-mass spectrometry (ICP-MS) measurements. The mother solutions were diluted in a complete medium to the required concentration.
To assess the growth inhibition of the compounds under investigation, a cell viability test (i.e., the resazurin reduction assay) was used. […] At the end of the treatment (72 h), viability was evaluated with 100 μg·mL^−1 resazurin (Acros Chemicals, France) in a fresh medium for 1 h at 37°C, and the amount of the reduced product, resorufin, was measured by fluorescence (excitation λ = 535 nm, emission λ = 595 nm) with a Tecan Infinite F200Pro plate reader (Tecan, Austria). In each experiment, cells were challenged with drug candidates at different concentrations, and the final data were calculated from at least three replicates of the same experiment performed in triplicate. The fluorescence of 8 wells containing a medium without cells was used as a blank. Fluorescence data were normalized to 100% cell viability for nontreated cells. […]

A2780cisR = assay: Resazurin reduction cell viability assay, A2780cisR; type: cell-based, human; details: for resistance factor, RF = IC50 A2780cisR/IC50 A2780: 72 h, rounded to the nearest unity; for IC50: 72 h of treatment, cisplatin-resistant, mean ± sd
Procedure: as §1, §2, §3
To assess the growth inhibition of the compounds under investigation, a cell viability test (i.e., the resazurin reduction assay) was used. In brief, 2–5 × 10^3 cells per well (depending on the cell line) were seeded in black sterile tissue culture-treated 96-well plates. At the end of the treatment (72 h), viability was evaluated with 100 μg·mL^−1 resazurin (Acros Chemicals, France) in a fresh medium for 1 h at 37°C, and the amount of the reduced product, resorufin, was measured by fluorescence (excitation λ = 535 nm, emission λ = 595 nm) with a Tecan Infinite F200Pro plate reader (Tecan, Austria). In each experiment, cells were challenged with drug candidates at different concentrations, and the final data were calculated from at least three replicates of the same experiment performed in triplicate. The fluorescence of 8 wells containing a medium without cells was used as a blank. Fluorescence data were normalized to 100% cell viability for nontreated cells. The half-inhibiting concentration (IC50), defined as the concentration of the drug that reduces cell viability by 50%, was obtained from the dose-response sigmoid using Origin Pro (version 8, Microcal Software Inc., Northampton, MA, USA).

[2] = design: method as in PMID 32296997; details: vs. Ag/AgCl, 3M KCl, glassy carbon electrode, scan rate 0.2 V·s^−1; cited from earlier work

## N.N.[Cl][Pt][Cl] [Cisplatin, (SP-4-2)-diamminedichloridoplatinum(II)]
[1]
  Log KW: −0.64
A2780
  IC50: 0.48 ± 0.12 µM
A2780cisR
  resistance factor, RF = IC50 A2780cisR/IC50 A2780: 13
  IC50: 6.22 ± 1.02 µM

## N.N.[OH][Pt]([OH])([Cl])[Cl] [Complex 1, (OC-6-33)-diamminedichloridodihydroxidoplatinum(IV)]
[1]
  Log KW: −1.06
A2780
  IC50: 3.71 ± 1.93 µM
A2780cisR
  resistance factor, RF = IC50 A2780cisR/IC50 A2780: 14
  IC50: 52.1 ± 3.48 µM
[2]
  E p (reduction peak potential): −0.815 V

## CC(=O)[O][Pt]([OH])([Cl])[Cl].N.N [Complex 2, (OC-6-44)-acetatodiamminedichloridohydroxidoplatinum(IV)]
[1]
  Log KW: −0.96
A2780
  IC50: 0.16 ± 0.05 µM
A2780cisR
  resistance factor, RF = IC50 A2780cisR/IC50 A2780: 6
  IC50: 1.02 ± 0.68 µM
[2]
  E p (reduction peak potential): −0.618 V

## CC(=O)[O][Pt]([NH2])([NH2])([Cl])([Cl])[O]C(C)=O [Complex 3, (OC-6-33)-diamminedichloridodiacetatoplatinum(IV)]
[1]
  Log KW: −0.83
A2780
  IC50: 12.1 ± 5.2 µM
A2780cisR
  IC50: > 100 µM
[2]
  E p (reduction peak potential): −0.486 V
